These results are taken from patent US7683061B2, “Triazine dimers for the treatment of autoimmune diseases” (ProMetic BioSciences Inc., priority 2003, dated 2010).

As usually defined, the pIC50 is −log10 of the IC50, conventionally taken in molar units. As a reminder, the IC50 is the concentration at which inhibition is half-maximal. The inhibition is how much of the control response was suppressed. The low end stands for a weak effect, the high end for a strong effect.

pIC50: −log10 of the molar value. Read-outs that look alike come from different tables or passages of the source. Where only a bound is given, the exact number is not on record here.

Data set [1] concerns peripheral blood mononuclear leukocytes (PBML). Briefly: PBML RNA synthesis (uridine). The format is cell-based, human. The settings on record: for pIC50: Homo sapiens, Leukocyte; for effect on RNA synthesis (in words): resting and stimulated (ConA and PWM) PBML. An excerpt:
(§1) PBML were obtained from the peripheral blood of healthy volunteers. Blood was submitted to gradient centrifugation with Lympholyte-poly (Cedarlane, Hornby, Canada). The layer, which contains the mononuclear leukocytes, was collected and the cells washed three times in PBS. Cells were then suspended in RPMI (Gibco, Burlington, Canada) supplemented with […] (cyclone, Logan USA). Viability was greater than 99% as determined by trypan blue exclusion.
(§2) PBML were resuspended at 2×10^6 cells mL. 100 μL of PBML (2×10^5 cells) were incubated in a 96-well microtiter plate for 48 h in the presence or absence of compound or protein A. Cells were quiescent or stimulated with concanavalin A (ConA; T-cells) or pokeweed mitogen (PWM; B-cells). After incubation, cells were treated with MTT (cytotoxicity) or pulsed with 1 μCi of [^3]-thymidine (DNA synthesis), [^3H]-uridine (RNA synthesis) or [^3]-leucine (protein synthesis) for 6 h. Plates were harvested on a Tomteck and counted on a Microbeta β-counter.

Another data set is described as follows: PBML cytotoxicity (MTT). The format is cell-based. The settings on record: human.
Text: as §1, §2

For data set [2], the target named is T1, Fc portion of human IgG (binding of protein A to human IgG).
T1 construct: fused on or other part: Horseradish peroxidase chemically conjugated to the IgG (HRP-IgG)
The data set can be described thus: Competitive protein A binding ELISA. The conditions noted are these: for IC50: Table 1; for pIC50: Table 2, n = 5 or 6. Summed up: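 Protein A coated overnight at 4 °C and blocked with 2% BSA. Compound, diluted in PBS or PBS-20% DMSO, competed with HRP-conjugated human IgG for 1 h at 37 °C. Bound IgG detected with ABTS at 405 nm; IC50 is the concentration inhibiting 50% of protein A binding.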
On the technique in general: ELISA stands for enzyme-linked immunosorbent assay.

For data set [3], the target named is TNFα / p55 TNFα receptor (CD120a) (Homo sapiens, UniProt P01375). The data set can be described thus: Binding ELISA: sTNF-R1 binding to plastic coated TNF-α. The protocol:
Compounds were tested for their ability to bind to TNFα or inhibit the interaction of TNFα with its respective receptors; p55 and p75 TNFα receptor. Three binding ELISA assays were undertaken as described by Mancini et al. Biochemical Pharmacology 58, 851-859 (1999). TNFα or receptor (1 μg/mL) was coated on a 96-well plate Maxisorp, overnight at 4° C. After incubation, unbound TNFα or p55 TNFα receptor or p75 TNFα receptor was removed and the plate washed three times with PBS. The plate was then incubated with 100 μL/well of a 2% BSA solution for 1 h at 37° C. to block non specific protein binding. After incubation, the plate was washed three times with PBS. Biotinylated recombinant human TNFα p55 or p75 receptor or biotinylated recombinant human TNFα was added to the wells in the presence or absence of compounds. The plate was incubated for 1 h at 37° C. After incubation, the plate was washed three times with PBS to remove unbound labeled p55 or p75 receptor or recombinant human TNFα. 100 μL of avidin-HRP (diluted 1/2000 in PBS-0.1% BSA) was added to each well and incubated 1 h at 37° C. Bound p55 or p75 receptor or recombinant human TNFα was detected by the addition of 200 μL of 3,3′,5,5′-tetramethylbenzidine (TMB) per well for 15 min. The plate was then read at 655 nm on a EL 800 universal Microplate reader (Bio-Tek, Mississauga, Canada). Data was analyzed in Microsoft Excel and recorded as the percentage of inhibition of p55 or p75 binding to TNFα or TNFα binding to RI (p55) or RII (p75).

The test system of the next data set is RAW 264.7 cells. The data set can be described thus: Phagocytosis of FITC-immune complexes by RAW 264.7 cells. The format is cell-based. The protocol:
This assay was performed to determine the ability of protein A mimic compounds to stimulate or inhibit uptake of FITC-Immune Complex (IC). FITC-IC was prepared by mixing human serum albumin (HSA)-fluorescein isothiocyanate (FITC) with mouse IgG anti-HSA at a 1:4 ratio (four molecules of antibody for one molecule of antigen) on a rotary shaker for 1 h at room temperature. Soluble IC was then incubated with or without compounds or protein A for 10 min. This mixture was added to RAW 264.7 cells and incubated for 2 h at 37° C. for IC phagocytosis. After incubation, cells were washed twice in cold PBS (5 min, 1200 rpm) and fixed with 500 μL PBS containing 2% formaldehyde. FITC signal taken up by RAW 264.7, which is indicative of IC phagocytosis, was determined by flow cytometry analysis in a Becton Coulter counter with an argon laser and signal was measured through a 530/30 nm filter.

The mark [4] stands for this setting: PBS-20% DMSO, read-out: IC50 (μM): Assay in PBS-20% DMSO.

TNFα / p55 TNFα receptor (CD120a), sequence (P01375 77-233 limits assumed): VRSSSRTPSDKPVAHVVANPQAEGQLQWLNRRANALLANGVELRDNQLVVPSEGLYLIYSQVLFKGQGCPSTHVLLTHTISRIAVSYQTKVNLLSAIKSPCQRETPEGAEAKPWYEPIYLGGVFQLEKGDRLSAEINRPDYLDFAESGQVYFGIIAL

Regarding `Nc1ccc(CCNc2nc(Nc3ccc(CCNc4nc(NCCO)nc(Nc5cccc(N)c5)n4)cc3)nc(Nc3cccc(N)c3)n2)cc1` [Compound 19a], the pIC50 in data set [1] (ConA stimulated PBML) is 6.16; in data set [1] (PWM stimulated PBML), 6.40; in data set [1] (Resting PBML) it was 6.40; in data set [2] (PBS-20% DMSO, read-out: IC50 (n = 5 or 6) PBS-20% DMSO) it was 8.46; in data set [2] (PBS, read-out: IC50 (n = 5 or 6) PBS), 7.06. In addition, in data set [1], the “effect on RNA synthesis (in words)” value was “suppress”. The half-maximal inhibitory concentration (IC50) at 48 h was 6.8 µM in the data set “PBML cytotoxicity (MTT)” (ConA stimulated PBML), above 10 µM in “PBML cytotoxicity (MTT)” (PWM stimulated PBML) and at least 10 µM in “PBML cytotoxicity (MTT)” (Resting PBML). Further, the IC50 in data set [2] (setting [4]) worked out at 0.003 µM; in data set [2] (PBS, read-out: IC50 (μM): Assay in PBS) it was 0.06 µM.
As for `Oc1ccc(CCNc2nc(NCCNc3nc(NCCc4ccc(O)cc4)nc(Nc4ccccc4)n3)nc(Nc3ccccc3)n2)cc1` [Compound 1], the inhibition at 100 µM in data set [3] (10^−4 M) worked out at 2.7%. The compound further gave an inhibition at 10 µM in data set [3] (10^−5 M) of 0%. For the same compound, the pIC50 in data set [1] (ConA stimulated PBML) was 6.04; in data set [1] (PWM stimulated PBML), 6.18; in data set [1] (Resting PBML), 5.96. Moreover, the “effect on RNA synthesis (in words)” value in data set [1] is “suppress”. Further, the IC50 at 48 h in “PBML cytotoxicity (MTT)” (ConA stimulated PBML) is 8.7 µM; in “PBML cytotoxicity (MTT)” (PWM stimulated PBML) it was above 10 µM; in the data set “PBML cytotoxicity (MTT)” (Resting PBML), above 10 µM. In addition, in the data set with RAW 264.7 cells (10 and 20 μM), the “inhibition of phagocytosis of IC” value is reported as “approximately 20%”. In addition, the “phagocytosis of IC” value in the data set on RAW 264.7 cells (concentrations of 1, 2 and 4 μM) is reported as “increase”. Moreover, in data set [2] (setting [4]), the IC50 was 50 µM.
